ChEMBL document CHEMBL5724914, “Linking interpersonal differences in gut microbiota composition and drug biotransformation activity” (2024)

How the values were obtained:
[1] = The drug is tested on Z-023 corresponding to metagenome with ENA study accession number: PRJEB37062 and ENA sample accession number: ERS12561822 for biotransformation under anaerobic condition. The drug concentrations were measured over 9 timepoints collected between 0 and 24 hours of incubation by liquid-chromatography-coupled mass spectrometry (LC–MS); conditions: 2 µM
[2] = The drug is tested on Z-021 corresponding to metagenome with ENA study accession number: PRJEB37062 and ENA sample accession number: ERS12561820 for biotransformation under anaerobic condition. The drug concentrations were measured over 9 timepoints collected between 0 and 24 hours of incubation by liquid-chromatography-coupled mass spectrometry (LC–MS); conditions: 2 µM
[3] = The drug is tested on Z-016 corresponding to mouse gut metagenome with ENA study accession number: PRJEB37062 and ENA sample accession number: ERS12561815 for biotransformation under anaerobic condition. The drug concentrations were measured over 9 timepoints collected between 0 and 24 hours of incubation by liquid-chromatography-coupled mass spectrometry (LC–MS); conditions: 2 µM
[4] = The drug is tested on Z-009 corresponding to pig gut metagenome with ENA study accession number: PRJEB37062 and ENA sample accession number: ERS12561809 for biotransformation under anaerobic condition. The drug concentrations were measured over 9 timepoints collected between 0 and 24 hours of incubation by liquid-chromatography-coupled mass spectrometry (LC–MS); conditions: 2 µM
[5] = The drug is tested on Z-008 corresponding to metagenome with ENA study accession number: PRJEB37062 and ENA sample accession number: ERS12561808 for biotransformation under anaerobic condition. The drug concentrations were measured over 9 timepoints collected between 0 and 24 hours of incubation by liquid-chromatography-coupled mass spectrometry (LC–MS); conditions: 2 µM
[6] = The drug is tested on WLS-370 corresponding to human gut metagenome with ENA study accession number: PRJEB37062 and ENA sample accession number: ERS12561793 for biotransformation under anaerobic condition. The drug concentrations were measured over 9 timepoints collected between 0 and 24 hours of incubation by liquid-chromatography-coupled mass spectrometry (LC–MS); conditions: 2 µM
[7] = The drug is tested on WLS-220 corresponding to human gut metagenome with ENA study accession number: PRJEB37062 and ENA sample accession number: ERS12561769 for biotransformation under anaerobic condition. The drug concentrations were measured over 9 timepoints collected between 0 and 24 hours of incubation by liquid-chromatography-coupled mass spectrometry (LC–MS); conditions: 2 µM
[8] = The drug is tested on WLS-170 corresponding to human gut metagenome with ENA study accession number: PRJEB37062 and ENA sample accession number: ERS12561762 for biotransformation under anaerobic condition. The drug concentrations were measured over 9 timepoints collected between 0 and 24 hours of incubation by liquid-chromatography-coupled mass spectrometry (LC–MS); conditions: 2 µM
[9] = The drug is tested on WLS-086 corresponding to human gut metagenome with ENA study accession number: PRJEB37062 and ENA sample accession number: ERS12561752 for biotransformation under anaerobic condition. The drug concentrations were measured over 9 timepoints collected between 0 and 24 hours of incubation by liquid-chromatography-coupled mass spectrometry (LC–MS); conditions: 2 µM
[10] = The drug is tested on WLS-082 corresponding to human gut metagenome with ENA study accession number: PRJEB37062 and ENA sample accession number: ERS12561751 for biotransformation under anaerobic condition. The drug concentrations were measured over 9 timepoints collected between 0 and 24 hours of incubation by liquid-chromatography-coupled mass spectrometry (LC–MS); conditions: 2 µM
[11] = The drug is tested on WLS-077 corresponding to human gut metagenome with ENA study accession number: PRJEB37062 and ENA sample accession number: ERS12561750 for biotransformation under anaerobic condition. The drug concentrations were measured over 9 timepoints collected between 0 and 24 hours of incubation by liquid-chromatography-coupled mass spectrometry (LC–MS); conditions: 2 µM
[12] = The drug is tested on WLS-006 corresponding to human gut metagenome with ENA study accession number: PRJEB37062 and ENA sample accession number: ERS12561741 for biotransformation under anaerobic condition. The drug concentrations were measured over 9 timepoints collected between 0 and 24 hours of incubation by liquid-chromatography-coupled mass spectrometry (LC–MS); conditions: 2 µM
[13] = human gut metagenome, 24 h, 2 µM
[14] = human gut metagenome, 24 h, 2 µM; remark: listed apart in the source
[15] = human gut metagenome, 24 h, 2 µM; remark: listed apart in the source
[16] = human gut metagenome, 24 h, 2 µM; remark: listed apart in the source
[17] = human gut metagenome, 24 h, 2 µM; remark: listed apart in the source
[18] = human gut metagenome, 24 h, 2 µM; remark: listed apart in the source
[19] = human gut metagenome, 24 h, 2 µM; remark: listed apart in the source
[20] = human gut metagenome, 24 h, 2 µM; remark: listed apart in the source
Further: call rule not given here.

SMILES	Bacterial Biotransformation [1]	Bacterial Biotransformation [2]	Bacterial Biotransformation [3]	Bacterial Biotransformation [4]	Bacterial Biotransformation [5]	Bacterial Biotransformation [6]	Bacterial Biotransformation [7]	Bacterial Biotransformation [8]	Bacterial Biotransformation [9]	Bacterial Biotransformation [10]	Bacterial Biotransformation [11]	Bacterial Biotransformation [12]	Bacterial Biotransformation [13]	Bacterial Biotransformation [14]	Bacterial Biotransformation [15]	Bacterial Biotransformation [16]	Bacterial Biotransformation [17]	Bacterial Biotransformation [18]	Bacterial Biotransformation [19]	Bacterial Biotransformation [20]
Nc1c2c(nc3ccccc13)CCCC2 [TACRINE]	Compound NOT metabolized	Compound NOT metabolized	Compound NOT metabolized	Compound NOT metabolized	Compound NOT metabolized	Compound NOT metabolized	Compound NOT metabolized	Compound metabolized	Compound metabolized	Compound NOT metabolized	Compound metabolized	Compound NOT metabolized	Compound NOT metabolized	Compound NOT metabolized	Compound metabolized	Compound metabolized	Compound metabolized	Compound NOT metabolized	Compound NOT metabolized	Compound metabolized
Cc1ccc(S(=O)(=O)NC(=O)NN2CCCCCC2)cc1 [TOLAZAMIDE]	Compound metabolized	Compound metabolized	Compound metabolized	Compound metabolized	Compound NOT metabolized	Compound metabolized	Compound metabolized	Compound metabolized	Compound metabolized	Compound metabolized	Compound metabolized	Compound metabolized	Compound metabolized	Compound NOT metabolized	Compound metabolized	Compound metabolized	Compound metabolized	Compound metabolized	Compound NOT metabolized	Compound metabolized
CCOC(=O)[C@H](CCc1ccccc1)N[C@@H](C)C(=O)N1[C@H](C(=O)O)C[C@H]2CCCC[C@@H]21 [TRANDOLAPRIL]	Compound metabolized	Compound NOT metabolized	Compound NOT metabolized	Compound metabolized	Compound NOT metabolized	Compound NOT metabolized	Compound metabolized	Compound metabolized	Compound metabolized	Compound metabolized	Compound metabolized	Compound metabolized	Compound metabolized	Compound NOT metabolized	Compound metabolized	Compound metabolized	Compound metabolized	Compound metabolized	Compound metabolized	Compound metabolized
CC(CN(C)C)CN1c2ccccc2CCc2ccccc21.O=C(O)/C=C\C(=O)O (stereo not given) [TRIMIPRAMINE MALEATE]	Compound metabolized	Compound NOT metabolized	Compound NOT metabolized	Compound NOT metabolized	Compound NOT metabolized	Compound NOT metabolized	Compound metabolized	Compound metabolized	Compound metabolized	Compound metabolized	Compound NOT metabolized	Compound metabolized	Compound metabolized	Compound metabolized	Compound NOT metabolized	Compound metabolized	Compound NOT metabolized	Compound metabolized	Compound NOT metabolized	Compound metabolized
CC(=O)CC(c1ccccc1)c1c(O)c2ccccc2oc1=O (stereo not given) [WARFARIN]	Compound metabolized	Compound NOT metabolized	Compound metabolized	Compound metabolized	Compound NOT metabolized	Compound metabolized	Compound metabolized	Compound metabolized	Compound metabolized	Compound metabolized	Compound metabolized	Compound metabolized	Compound metabolized	Compound metabolized	Compound metabolized	Compound metabolized	Compound metabolized	Compound metabolized	Compound metabolized	Compound metabolized
Cc1ccc(-c2nc3ccc(C)cn3c2CC(=O)N(C)C)cc1 [ZOLPIDEM]	Compound metabolized	Compound NOT metabolized	Compound NOT metabolized	Compound metabolized	Compound NOT metabolized	Compound NOT metabolized	Compound metabolized	Compound NOT metabolized	Compound metabolized	Compound NOT metabolized	Compound NOT metabolized	Compound NOT metabolized	Compound NOT metabolized	Compound metabolized	Compound NOT metabolized	Compound metabolized	Compound metabolized	Compound metabolized	Compound NOT metabolized	Compound NOT metabolized
